Experiment [1] deals with T1, GS-9005 hydrolase A (Homo sapiens, UniProt P42785).
T1 construct: Varying amounts of purified GS-9005 hydrolase A and control enzymes; from tissue; host or cells: human peripheral blood mononuclear cells (PBMC), purified by Q15 flow-through, SP-Sepharose, Butyl Sepharose HIC and lentil lectin chromatography
T1 sequence (P42785 46-496): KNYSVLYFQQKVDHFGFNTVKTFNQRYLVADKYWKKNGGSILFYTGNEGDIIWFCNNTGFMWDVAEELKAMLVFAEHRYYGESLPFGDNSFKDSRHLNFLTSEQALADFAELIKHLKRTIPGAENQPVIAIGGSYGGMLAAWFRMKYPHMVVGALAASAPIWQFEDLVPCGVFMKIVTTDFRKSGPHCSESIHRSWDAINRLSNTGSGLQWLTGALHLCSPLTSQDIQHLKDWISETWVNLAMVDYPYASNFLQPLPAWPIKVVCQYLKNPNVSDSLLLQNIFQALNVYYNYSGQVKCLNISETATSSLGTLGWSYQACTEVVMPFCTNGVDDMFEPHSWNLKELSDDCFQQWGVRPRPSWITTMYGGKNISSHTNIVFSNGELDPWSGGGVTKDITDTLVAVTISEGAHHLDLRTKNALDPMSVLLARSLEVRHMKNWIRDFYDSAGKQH
The class given is biochemical.

Experiment [2] deals with Human Prolylcarboxypeptidase (Homo sapiens, UniProt P42785). Conditions: read-out: Inhibition profile, ProlylcarboxyPeptidase; cited from earlier work.
For experiment [3], the target named is T1, GS-9005 hydrolase A. Type of experiment: biochemical. The source holds these as a separate data set.
Setting [4] is: pH 6.5, read-out: IC50 (inhibition profile, 9005 Hydrolase A).
[5] abbreviates: read-out: concentration at which GS-9005 hydrolase A is inhibited by 50%.

Molecules are shown by their SMILES. Like-named read-outs stand apart in the source and are kept apart here. Peptide text beside a SMILES is read from it. * marks the point of attachment. Cbz = O=C(OCc1ccccc1)*

As for `O=C[C@@H]1CCCN1C(=O)[C@@H]1CCCN1C(=O)OCc1ccccc1` [Cbz-pro-pro-COH, Carboxybenzoyl-Pro-Pro-COH] (Cbz-Pro-Pro-aldehyde), the “inhibition of GS-9005 hydrolase A (in words)” value in experiment [1] is reported as “inhibited”. For the same compound, the figures for the IC50 in experiment [1] (setting [4]), in experiment [1] (setting [5]) and in experiment [2] were 1 µM, approximately 1 µM and 1 µM, respectively.
Consider `CCOC(=O)[C@H](C)OP(=O)(COc1ccc(C[C@H](NC(=O)O[C@H]2CO[C@H]3OCCC32)[C@H](O)CN(CC(C)C)S(=O)(=O)c2ccc(OC)cc2)cc1)Oc1ccccc1` (stereo partly shown) [Compound A], for which, in experiment [3], the “specific activity of GS-9005 hydrolase A against the compound (comparison in words)” value (shortened to “specific activity”) is “greater than its specific activity against Compound L”.
Same read-out and setting: to `CCOC(=O)[C@H](C)NP(=O)(COc1ccc(C[C@@H]2[C@H](O)[C@@H](O)[C@@H](Cc3ccc(OC)cc3)N(Cc3ccc4[nH]ncc4c3)C(=O)N2Cc2ccc3[nH]ncc3c2)cc1)N[C@@H](C)C(=O)OCC` [Compound BB] belongs “approximately equivalent specific activity”.
Regarding `CCOC(=O)[C@H](C)NP(=O)(COc1ccc(C[C@@H]2[C@H](O)[C@@H](O)[C@@H](Cc3ccc(OC)cc3)N(Cc3ccc4[nH]ncc4c3)C(=O)N2Cc2ccc3[nH]ncc3c2)cc1)Oc1ccccc1` (stereo partly shown) [Compound CC], in experiment [3], the “specific activity” value is given as “approximately equivalent specific activity”.
On to `CCOC(=O)[C@H](C)OP(=O)(COc1ccc(C[C@@H]2[C@H](O)[C@@H](O)[C@@H](Cc3ccc(OC)cc3)N(Cc3ccc4[nH]ncc4c3)C(=O)N2Cc2ccc3[nH]ncc3c2)cc1)Oc1c(C)cccc1C` (stereo partly shown) [Compound EE], for which, in experiment [3], the “specific activity” value is “greater than its specific activity against Compound W”.
As to `CCOC(=O)[C@H](C)OP(=O)(CCNCc1ccc(Cn2c(COC(N)=O)nc(C(C)C)c2Sc2cc(Cl)cc(Cl)c2)cc1)Oc1ccccc1` (stereo partly shown) [Compound GG], the “specific activity” value in experiment [3] is reported as “greater than its specific activity against Compound DD”.
Same read-out and setting: to `CCOC(=O)COP(=O)(COc1ccc(Cn2c(COC(N)=O)nc(C(C)C)c2Sc2cc(Cl)cc(Cl)c2)cc1)Oc1ccccc1` (stereo not shown) [Compound HH] belongs “greater than its specific activity against Compound I”; to `CCSc1ccc(CN2CCCN(Cc3cccnc3)CC2)cc1` [Compound JJ], “greater than its specific activity against Compound AA”.
On to `CCOC(=O)[C@H](C)NP(=O)(COc1ccc(Cn2c(COC(N)=O)nc(C(C)C)c2Sc2cc(Cl)cc(Cl)c2)cc1)Oc1ccccc1` (stereo partly shown) [Compound KK], for which the “specific activity” value in experiment [3] is on record as “greater than its specific activity against Compound FF”.
The same measure, in the same setting: to `C=C(OC(C)C)[C@H](C)N[P@](=O)(CO[C@H](C)Cn1cnc2c(C)ncnc21)Oc1ccccc1` [Compound K] belongs “approximately equivalent specific activity”.
Turning to `COC(=O)[C@H](C)NP(=O)(COc1ccc(Cn2c(COC(N)=O)nc(C(C)C)c2Sc2cc(Cl)cc(Cl)c2)cc1)Oc1ccccc1` (stereo partly shown) [Compound LL], the “specific activity” value in experiment [3] was “approximately equivalent specific activity”.
In the case of `COC(=O)[C@H](C)N[P@](=O)(CO[C@H](C)Cn1cnc2c(N)ncnc21)Oc1ccccc1` [Compound U], the “specific activity” value in experiment [3] was “approximately equivalent specific activity”.
For `C=C(OC(C)C)C(C)OP(=O)(CCNCc1ccc(C[C@H](NC(=O)O[C@H]2CO[C@H]3OCC[C@H]32)[C@H](O)CN(CC(C)C)S(=O)(=O)c2ccc(OC)cc2)cc1)Oc1ccccc1` (stereo partly shown) [Compound X], the “specific activity” value in experiment [3] was “greater than its specific activity against Compound V”.
Turning to `CCOC(=O)[C@H](C)OP(=O)(CCN1CCN(C(=O)c2c3c(c(O)c4ncccc24)C(=O)N(Cc2ccc(F)cc2)C3)CC1)Oc1ccccc1` (stereo partly shown) [Compound Y], the “specific activity” value in experiment [3] was “greater than its specific activity against Compound B”.
For the compound `C=C(OCC)[C@H](C)OP(=O)(CCNC(=O)c1c2c(c(O)c3ncccc13)C(=O)N(Cc1ccc(F)cc1)C2)Oc1ccccc1` (stereo partly shown) [Compound Z], the “specific activity” value in experiment [3] is listed as “approximately equivalent specific activity”.
Consider `O=c1oc(Cl)c(Cl)c2ccccc12` [DCI, 3,4 dichloroisocoumarin], for which the “inhibition of GS-9005 hydrolase A (in words)” value in experiment [1] is reported as “inhibited”.
As for `O=S(=O)(F)Cc1ccccc1` [PMSF], the IC50 is 200 µM in experiment [1] (setting [4]), approximately 200 µM in experiment [1] (setting [5]) and 100 to 300 µM in experiment [2].

The values are drawn from patent publication US7273715B2 (priority 2003, dated 2007).
